# Data reported in paper PMC9810167, “Novel dual LSD1/HDAC6 inhibitor for the treatment of cancer” (PLOS ONE, 2023).
# Test system: MM1.S xenograft
# Experiment: MM1.S multiple myeloma xenograft model
# Type: in vivo
# Conditions: Bortezomib 0.5 mg/kg IP BIW; mice dead/group
smiles,measurement,value
"CC(C)C[C@H](NC(=O)[C@H](Cc1ccccc1)NC(=O)c1cnccn1)B(O)O [Bortezomib, reference compound]",mortality,1/7
